The data set in a line: in vivo. Set-up: species or system SD rats. The note with it: male, SD, rat, plasma, po, 1 mg/kg; read-out: Bioavailability F.

Each structure is given as a SMILES string.

Regarding `C[C@H](NC1=CC(=O)C2(CCCC2)C(=O)N1)c1cc(F)ccc1F` [Compound of formula (I)], the bioavailability was found to be 123%.

The values above are taken from patent publication US20250154108A1 (priority 2022, published 2025).
